Assay results published in BindingDB's records for patent US20240189315 (Boehringer Ingelheim International, 2024).

biological target: Cyclic GMP-AMP synthase (Homo sapiens, UniProt Q8N884); assay: in vitro human biochemical cGAS inhibition
Sequence (Q8N884 whole entry): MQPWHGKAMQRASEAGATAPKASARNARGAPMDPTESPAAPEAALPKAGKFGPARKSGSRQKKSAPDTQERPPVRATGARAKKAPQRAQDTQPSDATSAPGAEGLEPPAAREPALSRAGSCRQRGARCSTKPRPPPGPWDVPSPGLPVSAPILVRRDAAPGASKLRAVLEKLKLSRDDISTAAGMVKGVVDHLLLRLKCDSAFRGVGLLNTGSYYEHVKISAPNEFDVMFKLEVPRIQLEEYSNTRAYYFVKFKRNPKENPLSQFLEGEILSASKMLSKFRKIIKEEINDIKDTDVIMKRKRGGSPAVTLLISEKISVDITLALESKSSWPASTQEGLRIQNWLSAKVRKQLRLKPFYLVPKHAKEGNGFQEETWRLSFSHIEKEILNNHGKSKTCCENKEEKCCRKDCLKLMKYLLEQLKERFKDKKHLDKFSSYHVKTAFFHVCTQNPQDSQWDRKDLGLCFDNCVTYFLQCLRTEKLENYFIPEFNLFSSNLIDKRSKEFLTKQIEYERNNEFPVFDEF

Structure (SMILES)	IC50 [µM]
COC(=O)[C@@H]1C[C@H](Oc2ncc(Cl)cc2[C@@]2(F)CCS(=O)(=O)C[C@@H]2C)CN1c1nc(C(F)F)nc2c1oc1ccccc12 [US12043625, Example P02 (prodrug of Ex. 1.13)]	> 9.95
COC(=O)[C@@H]1C[C@H](Oc2ncccc2N2CCOC3(COC3)[C@@H]2C)CN1c1nc(C(F)F)nc2c1oc1ccccc12 [US20240189315, Example P01 of PCT/EP2022/062480) (Prodrug of Ex. 4.04 of PCT/EP-2022/062480)]	> 9.96
COC(=O)[C@@H]1C[C@H](Oc2ncc(-c3cccnc3OC)cc2N2CCOC3(COC3)[C@@H]2C)CN1c1nc(C(F)(F)F)nc2c1oc1ccccc12 [US20240189315, Example P04 of PCT/EP2022/062480) (Prodrug of Ex. 3.14 of PCT/EP2022/062480)]	> 9.95

The remaining lines, values ahead:

IC50 [µM]	Structure (SMILES)
0.027	C[C@H]1CN2CC[C@]1(F)c1cc(Cl)cnc1O[C@H]1C[C@@H](C(=O)O)N(C1)c1nc(nc3c1oc1ccccc13)CCCCOC2=O [US20240189315, Example 35]
> 9.95	COC(=O)[C@@H]1C[C@H](Oc2ncc(Br)cc2N2CCOC3(COC3)[C@@H]2C)CN1c1nc(C(F)(F)F)nc2c1oc1ccccc12 [US20240189315, Example P02 of PCT/EP2022/062480) (Prodrug of Ex. 1.10 of PCT/EP2022/062480)]
